# Source: patent publication US20110190227A1, “Antagonists of Prostaglandin D2 Receptors” (Amira Pharmaceuticals, Inc., priority 2008, published 2011)
# What was measured:
# [1] = molecular target: T1, human DP1 receptor (Homo sapiens, UniProt Q13258); assay: DP1 radioligand membrane binding assay ([3H]BWA868C); settings: human platelet membranes, 2 nM [3H]BWA868C; read-out: hDP1
# T1 construct: tissue Biological Specialty Corporation; host or cells: human platelets, membrane preparation
# T1 sequence (Q13258 1-359): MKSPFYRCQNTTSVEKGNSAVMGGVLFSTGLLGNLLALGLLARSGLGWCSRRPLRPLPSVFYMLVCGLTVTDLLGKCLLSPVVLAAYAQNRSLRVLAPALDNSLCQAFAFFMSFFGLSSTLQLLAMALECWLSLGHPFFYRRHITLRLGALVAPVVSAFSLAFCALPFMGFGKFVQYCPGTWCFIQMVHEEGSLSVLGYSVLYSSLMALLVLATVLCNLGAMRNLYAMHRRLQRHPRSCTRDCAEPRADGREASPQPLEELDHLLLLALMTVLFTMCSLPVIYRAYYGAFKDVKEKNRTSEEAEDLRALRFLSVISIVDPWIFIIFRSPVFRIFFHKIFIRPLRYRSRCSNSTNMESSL
# Experimental: The ability of a compound to bind to the human DP1 receptor was evaluated via a radioligand membrane binding assay using the DP1 selective synthetic ligand [^3H]BWA868C. Packed human platelets (Biological Specialty Corporation), were resuspended in 6 volumes of Hepes/HBSS buffer (10 mM Hepes, 1 mM DTT in Hanks Balanced Salt Solution (HBSS), lysed and centrifuged at 75,000×g to pellet the membranes. Membranes were resuspended in Hepes/HBSS buffer to approximately 12 mg protein/ml. Membranes (20 μg protein/well) are incubated in 96-well plates with 2 nM [^3H]BWA868C and test compound in Assay Buffer (50 mM Hepes, 10 mM MnCl2, 1 mM EDTA, plus or minus 0.2% human serum albumin, pH 7.4) for 60 minutes at room temperature. The reactions are terminated by rapid filtration through Whatman GF/C glass fibre filter plates. The filter plates were pre-soaked in 0.33% polyethylenimine for 30 minutes at room temperature then washed in Wash Buffer (50 mM Hepes, 0.5 M NaCl pH 7.4) prior to harvesting. After harvesting, the filter plates are washed 3 times with 1 ml cold Wash Buffer then dried. Scintillant is then added to the plates and the radioactivity retained on the filters is determined on a Packard TopCount (Perkin Elmer). Specific binding is determined as total radioactive binding minus non-specific binding in the presence of 10 μM BW A868C. IC50s were determined using GraphPad prism analysis of drug titration curves.
# [2] = molecular target: T2, human DP2 receptor (Homo sapiens, UniProt Q9Y5Y4); assay: DP2/CRTH2 radioligand binding assay ([3H]PGD2); settings: membranes of HEK293 cells expressing recombinant human DP2, 1 nM [3H]PGD2; read-out: hDP2
# T2 construct: expressed in transfected cells
# T2 sequence (Q9Y5Y4 1-395): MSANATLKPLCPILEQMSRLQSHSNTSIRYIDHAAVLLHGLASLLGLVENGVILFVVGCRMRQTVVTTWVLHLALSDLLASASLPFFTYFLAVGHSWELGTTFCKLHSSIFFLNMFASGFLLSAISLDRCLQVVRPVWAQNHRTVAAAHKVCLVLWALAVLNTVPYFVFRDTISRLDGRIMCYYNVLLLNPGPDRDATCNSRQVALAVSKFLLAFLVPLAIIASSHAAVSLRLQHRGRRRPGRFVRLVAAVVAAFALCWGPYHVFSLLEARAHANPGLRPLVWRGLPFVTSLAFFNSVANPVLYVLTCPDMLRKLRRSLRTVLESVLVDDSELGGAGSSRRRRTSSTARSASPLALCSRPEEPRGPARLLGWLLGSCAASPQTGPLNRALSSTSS
# Experimental: The ability of a compound to bind to the human DP2 receptor is assessed via a radioligand binding assay using [^3H]PGD2. HEK293 cells stably expressing recombinant human DP2 are resuspended in 10 mM Hepes, 7.4 containing 1 mM DTT, lysed and centrifuged at 75,000×g to pellet the membranes. The membranes are resuspended in 10 mM Hepes, 7.4 containing 1 mM DTF and 10% glycerol to approximately 5 mg protein/ml. Membranes (2-10 […]) are incubated in 96-well plates with 1 nM [^3H]PGD2 and test compound in Assay Buffer (50 mM Hepes, 10 mM MnCl2, 1 mM EDTA, plus or minus 0.2% human serum albumin, pH 7.4) for 60 minutes at room temperature. The reactions are terminated by rapid filtration through Whatman GF/C glass fibre filter plates. The filter plates were pre-soaked in 0.33% polythylenimine for 30 minutes at room temperature then washed in Wash Buffer (50 mM Hepes, 0.5 M NaCl pH 7.4) prior to harvesting. After harvesting, the filter plates are washed 3 times with 1 ml cold Wash Buffer then dried. Scintillant is then added to the plates and the radioactivity retained on the filters is determined on a Packard TopCount (Perkin Elmer). Specific binding is determined as total radioactive binding minus non-specific binding in the presence of 10 μM PGD2. IC50s were determined using GraphPad prism analysis of drug titration curves.
IC50 [1],IC50 [2],Compound
> 1000 nM,> 1000 nM,"COc1ccc(CC(=O)O)cc1Oc1ccc(C(F)(F)F)cc1CS(=O)(=O)C(C)(C)C [Compound 1-6, {4-Methoxy-3-[2-(2-methyl-propane-2-sulfonylmethyl)-4-trifluoromethyl-phenoxy]-phenyl}-acetic acid]"
> 1000 nM,< 300 nM,"COc1ccc(CC(=O)O)cc1Oc1ccc(C(F)(F)F)cc1CS(=O)(=O)CCc1ccccc1 [Compound 1-5, {4-Methoxy-3-[2-(2-phenyl-ethanesulfonylmethyl)-4-trifluoromethyl-phenoxy]-phenyl}-acetic acid]"
> 1000 nM,300 to 1000 nM,"O=C(O)Cc1cccc(Oc2ccc(Br)cc2CS(=O)(=O)c2nccs2)c1 [Compound 1-25, {3-[4-Bromo-2-(thiazole-2-sulfonylmethyl)-phenoxy]-phenyl}-acetic acid]"
> 1000 nM,> 1000 nM,"O=C(O)Cc1cccc(Oc2ccc(Br)cc2C[S+]([O-])c2ccccn2)c1 (stereo not shown) [Compound 1-31, {3-[4-Bromo-2-(pyridine-2-sulfinylmethyl)-phenoxy]-phenyl}-acetic acid]"
300 to 1000 nM,< 300 nM,"O=C(O)Cc1cccc(Oc2ccc(Br)cc2CSc2nccs2)c1 [Compound 1-14, {3-[4-Bromo-2-(thiazol-2-ylsulfanylmethyl)-phenoxy]-phenyl}-acetic acid]"
> 1000 nM,300 to 1000 nM,"COc1ccc(CC(=O)O)cc1Oc1ccc(C(F)(F)F)cc1CS(=O)(=O)c1ccccc1 [Compound 1-7, [3-(2-Benzenesulfonylmethyl-4-trifluoromethyl-phenoxy)-4-methoxy-phenyl]-acetic acid]"
> 1000 nM,< 300 nM,"O=C(O)Cc1cccc(Oc2ccc(Br)cc2C[S+]([O-])c2ccccc2)c1 (stereo not shown) [Compound 1-28, [3-(2-Benzenesulfinylmethyl-4-bromo-phenoxy)-phenyl]-acetic acid]"
–,< 300 nM,"COc1ccc(CC(=O)O)cc1Oc1ccc(-c2cnn(C)c2)cc1CSC(C)C [Compound 1-63, {3-[2-Isopropylsulfanylmethyl-4-(1-methyl-1H-pyrazol-4-yl)-phenoxy]-4-methoxy-phenyl}-acetic acid]"
> 1000 nM,< 300 nM,"COc1ccc(CC(=O)O)cc1Oc1ccc(C(F)(F)F)cc1CSc1ccccc1 [Compound 1-4, [4-Methoxy-3-(2-phenylsulfanylmethyl-4-trifluoromethyl-phenoxy)-phenyl]-acetic acid]"
–,< 300 nM,"COc1ccc(CC(=O)O)cc1Oc1ccc(C(=O)c2ccccc2)cc1CSC(C)C [Compound 1-83, [3-(4-Benzoyl-2-isopropylsulfanylmethyl-phenoxy)-4-methoxy-phenyl]-acetic acid]"
–,< 300 nM,"COc1ccc(CC(=O)O)cc1Cc1ccc(NC(=O)C(C)(C)C)cc1CSC(C)(C)C [Compound 1-107, {3-[2-tert-Butylsulfanylmethyl-4-(2,2-dimethyl-propionylamino)-benzyl]-4-methoxy-phenyl}-acetic acid]"
–,< 300 nM,"COc1ccc(CC(=O)O)cc1Oc1ccc(NS(=O)(=O)c2cccc3c(N(C)C)cccc23)cc1CSC(C)(C)C [Compound 1-119, {3-[2-tert-Butylsulfanylmethyl-4-(5-dimethylamino-naphthalene-1-sulfonylamino)-phenoxy]-4-methoxy-phenyl}-acetic acid]"
300 to 1000 nM,< 300 nM,"O=C(O)Cc1cccc(Oc2ccc(Br)cc2CSc2ccccc2)c1 [Compound 1-11, [3-(4-Bromo-2-phenylsulfanylmethyl-phenoxy)-phenyl]-acetic acid]"
> 1000 nM,< 300 nM,"COc1ccc(CC(=O)O)cc1Oc1ccc(C(F)(F)F)cc1CSCCc1ccccc1 [Compound 1-1, [4-Methoxy-3-(2-phenethylsulfanylmethyl-4-trifluoromethyl-phenoxy)-phenyl]-acetic acid]"
> 1000 nM,< 300 nM,"CN(C)CCS(=O)(=O)Cc1cc(Br)ccc1Oc1cccc(CC(=O)O)c1 [Compound 1-27, {3-[4-Bromo-2-(2-dimethylamino-ethanesulfonylmethyl)-phenoxy]-phenyl}-acetic acid]"
> 1000 nM,> 1000 nM,"COc1ccc(CC(=O)O)cc1Oc1ccc(C(F)(F)F)cc1C[S+]([O-])C(C)(C)C (stereo not shown) [Compound 1-9, {4-Methoxy-3-[2-(2-methyl-propane-2-sulfinylmethyl)-4-trifluoromethyl-phenoxy]-phenyl}-acetic acid]"
< 300 nM,< 300 nM,"O=C(O)Cc1cccc(Oc2ccc(Br)cc2CSCCc2ccccc2)c1 [Compound 1-13, [3-(4-Bromo-2-phenethylsulfanylmethyl-phenoxy)-phenyl]-acetic acid]"
> 1000 nM,> 1000 nM,"O=C(O)CSCc1cc(Br)ccc1Oc1cccc(CC(=O)O)c1 [Compound 1-19, [3-(4-Bromo-2-carboxymethylsulfanylmethyl-phenoxy)-phenyl]-acetic acid]"
< 300 nM,< 300 nM,"O=C(O)Cc1cccc(Oc2ccc(Br)cc2CSCc2ccccc2)c1 [Compound 1-12, [3-(2-Benzylsulfanylmethyl-4-bromo-phenoxy)-phenyl]-acetic acid]"
> 1000 nM,< 300 nM,"O=C(O)Cc1cccc(Oc2ccc(Br)cc2CS(=O)(=O)CCc2ccccc2)c1 [Compound 1-22, {3-[4-Bromo-2-(2-phenyl-ethanesulfonylmethyl)-phenoxy]-phenyl}-acetic acid]"
> 1000 nM,300 to 1000 nM,"COc1ccc(CC(=O)O)cc1Oc1ccc(C(F)(F)F)cc1CSC(C)(C)C [Compound 1-3, [3-(2-tert-Butylsulfanylmethyl-4-trifluoromethyl-phenoxy)-4-methoxy-phenyl]-acetic acid]"
300 to 1000 nM,< 300 nM,"COc1ccc(CC(=O)O)cc1Oc1ccc(Cl)cc1CSCc1ccccc1 [Compound 1-54, [3-(2-Benzylsulfanylmethyl-4-chloro-phenoxy)-4-methoxy-phenyl]-acetic acid]"
> 1000 nM,< 300 nM,"COc1ccc(CC(=O)O)cc1Oc1ccc(Cl)cc1CS(=O)(=O)Cc1ccccc1 [Compound 1-56, [3-(4-Chloro-2-phenylmethanesulfonylmethyl-phenoxy)-4-methoxy-phenyl]-acetic acid]"
> 1000 nM,> 1000 nM,"CN(C)CC[S+]([O-])Cc1cc(Br)ccc1Oc1cccc(CC(=O)O)c1 (stereo not shown) [Compound 1-35, {3-[4-Bromo-2-(2-dimethylamino-ethanesulfinylmethyl)-phenoxy]-phenyl}-acetic acid]"
–,300 to 1000 nM,"COc1ccc(CC(=O)O)cc1Oc1ccc(-c2cnn(C)c2)cc1CS(=O)(=O)C(C)C [Compound 1-64, {4-Methoxy-3-[4-(1-methyl-1H-pyrazol-4-yl)-2-(propane-2-sulfonylmethyl)-phenoxy]-phenyl}-acetic acid]"
–,300 to 1000 nM,"COc1ccc(CC(=O)O)cc1Oc1ccc(NC(=O)C(C)(C)C)cc1COc1ccccc1 [Compound 1-118, {3-[4-(2,2-Dimethyl-propionylamino)-2-phenoxymethyl-phenoxy]-4-methoxy-phenyl}-acetic acid]"
